Like-named read-outs stand apart in the source and are kept apart here.
Tests used:
Assay type in all cases: cell-based
PPAR-gamma = target: T1, PPAR-gamma (Homo sapiens, UniProt P37231); assay: human PPAR-GAL4 chimera luciferase reporter assay in CV-1 cells, PPAR-gamma
T1 construct: expressed in transfected cells; host or cells: CV-1 cells
T1 sequence (P37231 238-503 limits assumed): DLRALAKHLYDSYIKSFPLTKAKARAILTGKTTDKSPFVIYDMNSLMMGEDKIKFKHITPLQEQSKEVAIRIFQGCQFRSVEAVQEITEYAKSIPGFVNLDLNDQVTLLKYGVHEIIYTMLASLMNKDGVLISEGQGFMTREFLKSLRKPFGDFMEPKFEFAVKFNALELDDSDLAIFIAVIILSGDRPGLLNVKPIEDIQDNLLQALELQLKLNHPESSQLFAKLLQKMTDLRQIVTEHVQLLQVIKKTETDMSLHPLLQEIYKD
Protocol: (§1) The compounds were evaluated in a cell-based assay to determine their human PPAR activity. The plasmids for human PPAR-GAL4 chimeras were prepared by fusing amplified cDNAs encoding the LBDs of PPARs to the C-terminal end of the yeast GAL4 DNA binding domain. CV-1 cells were grown and transiently transected with PerFectin (GTS, San Diego, Calif.) according to the manufacturer's protocol along with a luciferase reporter. Eight hours after transfection, 50 μl of cells were replated into 384 well plates ([…]). Sixteen hours after replating, cells were treated with either compounds or 1% DMSO for 24 hours. Luciferase activity was then assayed with Britelite (Perkin Elmer) following the manufacturer's protocol and measured with either the Perkin Elmer Viewlux or Molecular Devices Acquest.
(§2) Compounds may be screened for functional potency in transient transfection assays in CV-1 cells for their ability to activate the PPAR subtypes (transactivation assay). A previously established chimeric receptor system was utilized to allow comparison of the relative transcriptional activity of the receptor subtypes on the same synthetic response element and to prevent endogenous receptor activation from complicating the interpretation of results. See, for example, Lehmann, J. M.; Moore, L. B.; Smith-Oliver, T. A; Wilkinson, W. O.; Willson, T. M.; Kliewer, S. A., An antidiabetic thiazolidinedione is a high affinity ligand for peroxisome proliferator-activated receptory γ (PPARγ), J. Biol. Chem., 1995, 270, 12953-6. The ligand binding domains for murine and human PPAR-alpha, PPAR-gamma, and PPAR-delta are each fused to the yeast transcription factor GAL4 DNA binding domain. CV-1 cells were transiently transfected with expression vectors for the respective PPAR chimera along with a reporter construct containing four or five copies of the GAL4 DNA binding site driving expression of luciferase. After 8-16 h, the cells are replated into multi-well assay plates and the media is exchanged to phenol-red free DME medium supplemented with 5% delipidated calf serum. 4 hours after replating, cells were treated with either compounds or 1% DMSO for 20-24 hours. Luciferase activity was then assayed with Britelite (Perkin Elmer) following the manufacturer's protocol and measured with either the Perkin Elmer Viewlux or Molecular Devices Acquest (see, for example, Kliewer, S. A., et. al. Cell 1995, 83, 813-819). Rosiglitazone is used as a positive control in the hPPAR-γ assay. Wy-14643 and GW7647 is used as a positive control in the hPPAR-α assay. GW501516 is used as the positive control in the hPPAR-δ assay.

PPAR-alpha = target: T2, PPAR-alpha (Homo sapiens, UniProt Q07869); assay: human PPAR-GAL4 chimera luciferase reporter assay in CV-1 cells, PPAR-alpha
T2 construct: expressed in transfected cells; host or cells: CV-1 cells
T2 sequence (Q07869 239-466 limits assumed): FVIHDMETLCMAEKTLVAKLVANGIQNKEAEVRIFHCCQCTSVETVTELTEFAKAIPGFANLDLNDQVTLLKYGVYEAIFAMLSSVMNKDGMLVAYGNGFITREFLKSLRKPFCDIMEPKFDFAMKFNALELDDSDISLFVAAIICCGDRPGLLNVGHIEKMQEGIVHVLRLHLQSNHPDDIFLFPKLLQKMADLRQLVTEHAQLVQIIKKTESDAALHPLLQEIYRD
Protocol: as §1, §2

PPAR-delta = target: T3, PPAR-delta (Homo sapiens, UniProt Q03181); assay: human PPAR-GAL4 chimera luciferase reporter assay in CV-1 cells, PPAR-delta
T3 construct: expressed in transfected cells; host or cells: CV-1 cells
T3 sequence (Q03181 211-439 limits assumed): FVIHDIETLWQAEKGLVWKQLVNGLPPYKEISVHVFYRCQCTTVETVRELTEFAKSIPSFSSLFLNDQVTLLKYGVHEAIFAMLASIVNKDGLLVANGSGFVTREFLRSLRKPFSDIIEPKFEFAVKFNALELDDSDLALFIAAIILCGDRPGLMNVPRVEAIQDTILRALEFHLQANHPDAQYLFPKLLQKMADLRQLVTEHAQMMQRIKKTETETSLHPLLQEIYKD
Protocol: as §1, §2

[1] = Table 3, Examples 11-25, read-out: PPAR gamma (EC50)
[2] = Table 3, Examples 11-25, read-out: PPAR alpha (EC50)
[3] = Table 3, Examples 11-25, read-out: PPAR delta (EC50)

EC50 (PPAR-gamma; [1]) [µM]	EC50 (PPAR-alpha; [2]) [µM]	EC50 (PPAR-delta; [3]) [µM]	EC50 (PPAR-gamma; Table 2, Examples 1-10, read-out: PPAR γ EC50) [µM]	EC50 (PPAR-alpha; Table 2, Examples 1-10, read-out: PPAR α EC50) [µM]	EC50 (PPAR-delta; Table 2, Examples 1-10, read-out: PPAR δ EC50) [µM]	Structure (SMILES)
5 to 100	< 5	< 5				Cc1nc(-c2ccc(C(F)(F)F)cc2)sc1CCN1CCc2cc(OC(C)(C)C(=O)O)ccc21 [Example 19, 2-Methyl-2-(1-{2-[4-methyl-2-(4-trifluoromethyl-phenyl)-thiazol-5-yl]-ethyl}-2,3-dihydro-1H-indol-5-yloxy)-propionic acid]
5 to 100	5 to 100	< 5				Cc1nc(-c2ccc(C(F)(F)F)cc2)sc1CCN1CCc2ccc(OCC(=O)O)cc21 [Example 25, (1-{2-[4-Methyl-2-(4-trifluoromethyl-phenyl)-thiazol-5-yl]-ethyl}-2,3-dihydro-1H-indol-6-yloxy)-acetic acid]
			> 10	> 10	> 10	Cc1nc(-c2ccc(C(F)(F)F)cc2)sc1Cn1cc(C(=O)O)c2ccccc21 [Example 8]

— US20050203151A1, “Novel compounds, compositions and uses thereof for treatment of metabolic disorders and related conditions” (Kalypsys, Inc., priority 2003, published 2005)
